Laboratory results taken from article PMC7674269 (Biochemistry, 2020).

B1: Sortilin luminal beta-propeller domain (protein)
chain: NNTHQHVFDDLRGSVSLSWVGDSTGVILVLTTFHVPLVIMTFGQSKLYRSEDYGKNFKDITDLINNTFIRTEFGMAIGPENSGKVVLTAEVSGGSRGGRIFRSSDFAKNFVQTDLPFHPLTQMMYSPQNSDYLLALSTENGLWVSKNFGGKWEEIHKAVCLAKWGSDNTIFFTTYANGSCKADLGALELWRTSDLGKSFKTIGVKIYSFGLGGRFLFASVMADKDTTRRIHVSTDQGDTWSMAQLPSVGQEQFYSILAANDDMVFMHVDEPGDTGFGTIFTSDDRGIVYSKSLDRHLYTTTGGETDFTNVTSLRGVYITSVLSEDNSIQTMITFDQGGRWTHLRKPENSECDATAKNKNECSLHIHASYSISQKLNVPMAPLSEPNAVGIVIAHGSVGDAISVMVPDVYISDDGGYSWTKMLEGPHYYTILDSGGIIVAIEHSSRPINVIKFSTDEGQCWQTYTFTRDPIYFTGLASEPGARSMNISIWGFTESFLTSQWVSYTIDF

Assays:
sortilin = biological target: T1, sortilin (Homo sapiens, UniProt Q99523); experiment: SPR, immobilised sortilin, CM5 chip; format: binding
T1 sequence (Q99523 78-755): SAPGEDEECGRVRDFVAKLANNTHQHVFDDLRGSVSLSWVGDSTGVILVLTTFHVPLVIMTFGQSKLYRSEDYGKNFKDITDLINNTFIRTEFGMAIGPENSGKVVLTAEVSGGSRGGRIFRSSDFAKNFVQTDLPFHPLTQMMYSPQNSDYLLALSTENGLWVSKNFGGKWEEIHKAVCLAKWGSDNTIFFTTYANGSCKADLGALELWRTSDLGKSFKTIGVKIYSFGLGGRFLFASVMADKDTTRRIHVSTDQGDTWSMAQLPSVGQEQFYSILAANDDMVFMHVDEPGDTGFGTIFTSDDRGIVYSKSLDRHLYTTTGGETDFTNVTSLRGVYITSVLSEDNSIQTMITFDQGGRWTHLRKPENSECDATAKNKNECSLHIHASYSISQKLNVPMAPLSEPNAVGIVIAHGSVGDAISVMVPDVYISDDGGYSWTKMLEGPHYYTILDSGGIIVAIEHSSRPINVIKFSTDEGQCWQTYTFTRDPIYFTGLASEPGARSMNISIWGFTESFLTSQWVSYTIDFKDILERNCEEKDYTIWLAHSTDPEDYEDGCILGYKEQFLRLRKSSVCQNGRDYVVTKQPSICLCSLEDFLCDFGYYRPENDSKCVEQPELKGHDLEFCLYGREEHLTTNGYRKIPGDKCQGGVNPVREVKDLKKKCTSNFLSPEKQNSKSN

[1] = biological target: T2, Neurotensin C-terminal fragment (Ct-NT) C-terminal 4 residues (Homo sapiens, UniProt P30990); experiment: SPR competition with PIP3 nanodiscs
T2 chain: PYIL

[2] = biological target: T2, Neurotensin C-terminal fragment (Ct-NT) …; experiment: SPR

| Molecule | Kd (sortilin) [nM] | IC50 [1] [nM] | Kd [2] [nM] |
| --- | --- | --- | --- |
| C[C@@H](NC(=O)c1ccccc1NCC(=O)O)c1ccccc1 [cpd541] | 6900 ± 1100 |  |  |
| CN1CCC[C@H]1C(=O)Nc1cccc(NC(=O)CCc2ccccc2)c1 [cpd984, (2S)-1-methylN-3-[(3-phenypropanoyl)-amino]phenylpyrrolidine-2-carboxamied] | 118 ± 38 |  |  |
| CCCCCCCC(=O)OC[C@H](COP(=O)(O)O[C@H]1[C@H](O)[C@@H](OP(=O)(O)O)[C@H](OP(=O)(O)O)[C@@H](OP(=O)(O)O)[C@H]1O)OC(=O)CCCCCCC [diC8-PIP3] | 4200 ± 400 |  |  |
| B1 |  | 157 | ~120 |
